Our source for the IC50 values is article PMC8919507, “Dual Reversible Coumarin Inhibitors Mutually Bound to Monoamine Oxidase B and Acetylcholinesterase Crystal Structures” (ACS Medicinal Chemistry Letters, 2022).

This experiment addresses T1, mouse AChE (Mus musculus, UniProt P21836).
T1 sequence (P21836 32-614): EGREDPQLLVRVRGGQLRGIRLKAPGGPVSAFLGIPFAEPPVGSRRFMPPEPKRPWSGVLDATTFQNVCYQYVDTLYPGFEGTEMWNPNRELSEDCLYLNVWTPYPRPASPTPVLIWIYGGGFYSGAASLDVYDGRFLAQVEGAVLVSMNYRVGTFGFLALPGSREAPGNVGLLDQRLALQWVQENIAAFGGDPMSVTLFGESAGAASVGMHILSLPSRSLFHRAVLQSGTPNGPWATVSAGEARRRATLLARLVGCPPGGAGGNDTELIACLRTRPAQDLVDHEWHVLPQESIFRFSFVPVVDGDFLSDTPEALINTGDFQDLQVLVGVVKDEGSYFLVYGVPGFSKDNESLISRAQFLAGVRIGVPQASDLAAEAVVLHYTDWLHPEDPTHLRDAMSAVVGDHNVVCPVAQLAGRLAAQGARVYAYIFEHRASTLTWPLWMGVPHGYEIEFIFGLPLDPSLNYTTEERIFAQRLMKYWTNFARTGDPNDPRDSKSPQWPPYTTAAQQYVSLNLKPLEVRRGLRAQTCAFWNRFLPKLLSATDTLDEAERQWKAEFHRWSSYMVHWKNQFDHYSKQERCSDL
The experiment is described as follows: AChE inhibition, spectrophotometric Ellman's method on purified recombinant enzyme. The following applies: 1 mM acetylthiocholine iodide, pH 7.4.

The structures appear in SMILES notation.

Method: Mouse AChE was expressed in HEK293 F cells and purified as previously reported.3 The activity
of AChE was measured using the Ellman assay adaped to a 96-well plate format.4 The
acetylthiocholine iodide was 1 mM. The measurements were performed in 0.1 M phosphate
Determination of IC50 values for the compounds
inhibition of AChE was performed as previously reported.6 At least 5 replicate IC50 determinations at 8
inhibitor concentrations were performed for each compound. The obtained dose-response curve was
fitted using the response variable slope versus log(inhibitor concentration) equation (four parameters) in
GraphPad Prism software 5.0.

Consider `Cc1c(C)c2ccc(OCC3CCCN(Cc4ccccc4)C3)cc2oc1=O` (single isomer, unassigned; (+)) [(+)-2, 7-[(1-benzylpiperidin-3-yl)methoxy]-3,4-dimethyl-2H-chromen-2-one], for which the 50% inhibitory concentration (IC50) worked out at 1500 ± 100 nM.
As to `Cc1c(C)c2ccc(OCC3CCCN(Cc4ccccc4)C3)cc2oc1=O` (single isomer, unassigned; (-)) [(−)-2, 7-[(1-benzylpiperidin-3-yl)methoxy]-3,4-dimethyl-2H-chromen-2-one], the 50% inhibitory concentration (IC50) was 700 ± 50 nM.
